Source: article PMC2951761 (Biochemistry, 2010)
Where two headings read alike, the source gives them in different places.

Assays:
EF CC activity = EF CC activity (Bacillus anthracis, UniProt P40136); format: biochemical; details: read-out: Ki EF CC activity
EF AC activity [1] = target: T1, EF AC activity (Bacillus anthracis, UniProt P40136); format: biochemical; details: read-out: Ki EF AC activity
CyaA AC activity = CyaA AC activity (Bordetella pertussis, UniProt P0DKX7); details: read-out: Ki CyaA AC activity; cited from earlier work
CyaA CC activity = CyaA CC activity (Bordetella pertussis, UniProt P0DKX7); format: biochemical; details: read-out: Ki CyaA CC activity
EF AC activity [2] = target: T1, EF AC activity; details: read-out: Ki EF AC activity; cited from earlier work

Chain of CyaA AC activity (P0DKX7 whole entry, looked up): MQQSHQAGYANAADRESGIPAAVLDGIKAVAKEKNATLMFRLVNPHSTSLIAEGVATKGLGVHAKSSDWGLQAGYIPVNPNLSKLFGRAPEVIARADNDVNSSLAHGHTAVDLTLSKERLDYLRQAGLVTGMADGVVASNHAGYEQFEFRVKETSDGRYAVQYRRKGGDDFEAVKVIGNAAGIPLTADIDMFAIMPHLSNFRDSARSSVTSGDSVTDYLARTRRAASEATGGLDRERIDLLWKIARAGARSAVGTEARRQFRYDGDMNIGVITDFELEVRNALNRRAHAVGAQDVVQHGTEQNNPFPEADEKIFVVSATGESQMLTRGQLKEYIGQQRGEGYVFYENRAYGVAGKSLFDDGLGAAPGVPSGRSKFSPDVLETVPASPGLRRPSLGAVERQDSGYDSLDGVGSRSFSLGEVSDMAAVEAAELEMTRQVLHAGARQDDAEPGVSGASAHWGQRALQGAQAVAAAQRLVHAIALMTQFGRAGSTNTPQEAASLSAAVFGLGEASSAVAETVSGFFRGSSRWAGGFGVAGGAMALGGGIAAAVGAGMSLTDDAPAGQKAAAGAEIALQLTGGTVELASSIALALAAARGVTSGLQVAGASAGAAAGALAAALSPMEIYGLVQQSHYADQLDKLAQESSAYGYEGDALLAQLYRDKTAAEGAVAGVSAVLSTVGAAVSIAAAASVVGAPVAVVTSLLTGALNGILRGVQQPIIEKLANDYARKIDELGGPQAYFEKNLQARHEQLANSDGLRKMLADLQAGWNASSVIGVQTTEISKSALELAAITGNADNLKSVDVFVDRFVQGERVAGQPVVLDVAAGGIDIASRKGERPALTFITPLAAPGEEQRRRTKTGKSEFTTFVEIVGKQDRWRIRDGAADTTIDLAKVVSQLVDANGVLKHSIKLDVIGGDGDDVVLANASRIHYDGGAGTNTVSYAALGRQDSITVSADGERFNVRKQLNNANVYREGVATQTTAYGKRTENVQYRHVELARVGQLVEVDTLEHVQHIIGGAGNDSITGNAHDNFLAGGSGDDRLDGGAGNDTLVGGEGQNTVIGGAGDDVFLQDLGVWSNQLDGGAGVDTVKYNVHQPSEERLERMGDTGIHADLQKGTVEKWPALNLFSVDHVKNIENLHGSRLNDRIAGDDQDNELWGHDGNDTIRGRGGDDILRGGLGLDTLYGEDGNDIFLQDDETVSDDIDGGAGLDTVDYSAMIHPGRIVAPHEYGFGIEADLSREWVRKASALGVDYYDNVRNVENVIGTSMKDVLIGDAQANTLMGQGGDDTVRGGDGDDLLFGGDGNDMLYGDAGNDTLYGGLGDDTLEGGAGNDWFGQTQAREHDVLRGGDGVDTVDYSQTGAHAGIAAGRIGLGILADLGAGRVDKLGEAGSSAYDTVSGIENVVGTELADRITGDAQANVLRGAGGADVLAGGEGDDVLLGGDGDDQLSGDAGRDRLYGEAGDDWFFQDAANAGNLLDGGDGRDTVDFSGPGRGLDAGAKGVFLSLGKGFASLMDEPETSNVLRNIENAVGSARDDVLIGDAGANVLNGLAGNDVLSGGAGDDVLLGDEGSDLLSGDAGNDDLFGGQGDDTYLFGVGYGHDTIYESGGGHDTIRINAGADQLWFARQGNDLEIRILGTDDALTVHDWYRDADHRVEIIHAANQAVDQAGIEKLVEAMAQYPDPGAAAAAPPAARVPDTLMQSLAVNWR
Chain of CyaA CC activity (P0DKX7 whole entry, looked up): as above
T1 sequence (P40136 whole entry, looked up): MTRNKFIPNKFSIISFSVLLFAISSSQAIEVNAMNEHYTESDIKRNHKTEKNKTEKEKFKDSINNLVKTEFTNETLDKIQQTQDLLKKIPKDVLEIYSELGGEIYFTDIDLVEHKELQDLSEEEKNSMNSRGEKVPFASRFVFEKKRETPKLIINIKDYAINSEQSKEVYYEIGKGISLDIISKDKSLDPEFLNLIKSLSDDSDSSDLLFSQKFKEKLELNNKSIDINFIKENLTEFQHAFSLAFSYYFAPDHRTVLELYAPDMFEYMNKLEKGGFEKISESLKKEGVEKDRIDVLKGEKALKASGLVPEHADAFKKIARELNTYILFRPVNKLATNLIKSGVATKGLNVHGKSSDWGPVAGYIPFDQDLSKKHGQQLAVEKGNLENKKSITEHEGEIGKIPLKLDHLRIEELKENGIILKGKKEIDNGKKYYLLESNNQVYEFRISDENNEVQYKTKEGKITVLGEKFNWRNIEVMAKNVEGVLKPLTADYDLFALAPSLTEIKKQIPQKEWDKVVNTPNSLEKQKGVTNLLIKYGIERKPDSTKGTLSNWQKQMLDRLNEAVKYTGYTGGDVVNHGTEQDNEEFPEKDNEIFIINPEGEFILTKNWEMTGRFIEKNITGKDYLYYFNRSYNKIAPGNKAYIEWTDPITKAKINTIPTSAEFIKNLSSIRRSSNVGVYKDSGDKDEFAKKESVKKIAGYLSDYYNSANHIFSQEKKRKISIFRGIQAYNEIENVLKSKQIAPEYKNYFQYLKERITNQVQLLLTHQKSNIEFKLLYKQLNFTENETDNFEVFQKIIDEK
Chain of EF CC activity (P40136 whole entry, looked up): as above

Nc1ncnc2c1ncn2CCOCP(=O)(O)OP(=O)(O)OP(=O)(O)O [PMEApp, [9-[2-(Phosphonomethoxy)ethyl]adenine diphosphate]]
Ki (EF CC activity): 0.0045 ± 0.0004 µM | Ki (EF AC activity [1]): 0.002 ± 0.0005 µM

MANT-ATP
Ki (CyaA AC activity): 4.3 ± 0.4 µM | Ki (CyaA CC activity): 4.4 ± 0.1 µM

MANT-GTP
Ki (CyaA AC activity): 5.9 ± 1 µM | Ki (CyaA CC activity): 6.1 ± 2 µM | Ki (EF CC activity): 2.8 ± 0.4 µM | Ki (EF AC activity [2]): 2.5 ± 0.1 µM
